Among the data in PubChem BioAssay AID653 (University of Pittsburgh Molecular Library Screening Center, 2007) are IC50 values, retold here.

Activity calls are given as the source filed them. The rule behind the calls is not given here.

Chain of Genome polyprotein (West Nile virus) (P06935 1371-1501 limits assumed): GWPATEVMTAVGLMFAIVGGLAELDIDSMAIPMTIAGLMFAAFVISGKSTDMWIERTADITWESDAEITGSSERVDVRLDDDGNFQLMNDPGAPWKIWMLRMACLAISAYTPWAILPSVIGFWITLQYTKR
Chain of Genome polyprotein (West Nile virus) (P06935 1502-1679 limits assumed): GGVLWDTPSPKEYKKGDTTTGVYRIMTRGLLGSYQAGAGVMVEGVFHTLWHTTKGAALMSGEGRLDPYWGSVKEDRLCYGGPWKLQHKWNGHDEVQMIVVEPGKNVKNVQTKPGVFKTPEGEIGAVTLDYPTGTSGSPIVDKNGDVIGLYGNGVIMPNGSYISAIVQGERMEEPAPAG

This assay concerns the target Genome polyprotein (West Nile virus) (UniProt P06935). The assay is described as follows: West Nile NS2B-NS3 proteinase blockers – biochemical, confirmation, dose response (AID 653). The settings on record: WNV NS2B-NS3 protease enzymatic assay, fluorescence.
For the compound `COc1ccc(N=CC2=C(O)CCCC2=O)cc1`, the IC50 (in general, the concentration that gives 50% inhibition) is 34.1 µM. For `COc1ccc(OC)c(C2C(C(N)=O)=C(C)Nc3nc(-c4cccc(Cl)c4)nn32)c1` (stereo not given) the value was > 50 µM (inactive); for `C/C(CC1(O)C(=O)N(Cc2ccccc2)c2ccccc21)=N\O` (stereo not given), > 50 µM (inactive); for `COC(=O)CSC1=C(C#N)C(c2ccc(C)cc2)C2=C(CCCC2=O)N1` (stereo not given), > 50 µM (inactive). In the case of `COc1cccc(NC(=O)CSc2nc3n[nH]c(C)c3c(=N)n2-c2cccc(OC)c2)c1`, the IC50 was > 50 µM (inactive).
